Test results taken from PMC9112407 (RSC Advances, 2022).

What was measured:
MCF-7 = assay: In vitro anti-proliferative activity, MTT assay; assay type: cell-based; conditions: Homo sapiens, MCF7, 48 h, read-out: In vitro IC50 (nM) Mean ± SD MCF-7
CDK2/cyclin A2 = CDK2/cyclin A2 (Homo sapiens, UniProt P24941); assay: CDK2/cyclin A2 Kinase-Glo Plus luminescence kinase assay

Cc1ccc(NCC(=O)n2ncc3c(=N)n(N)cnc32)cc1 [Compound 4, 1-(5-Amino-4-imino-4,5-dihydro-1H-pyrazolo[3,4-d]pyrimidin-1-yl)-2-(p-tolylamino)ethan-1-one]
IC50 (MCF-7): 79 ± 1.4 nM

Cc1ccc(NCC(=O)n2ncc3c2ncn2[nH]c(=S)nc32)cc1 [Compound 7, 1-(2-Thioxo-2,3-dihydro-7H-pyrazolo[4,3-e][1,2,4]triazolo[1,5-c]pyrimidin-7-yl)-2-(p-tolylamino)ethan-1-one]
IC50 (MCF-7): 951 ± 33 nM

CC(=O)OCC(CSc1nc2c3cnn(C(=O)CNc4ccc(C)cc4)c3ncn2n1)OC(C)=O (stereo not shown) [Compound 11, 3-((7-(p-Tolylglycyl)-7H-pyrazolo[4,3-e][1,2,4]triazolo[1,5-c]pyrimidin-2-yl)thio)propane-1,2-diyl diacetate]
IC50 (CDK2/cyclin A2): 3650 ± 203 nM | IC50 (MCF-7): 91 ± 4.2 nM

COC(CSc1nc2c3cnn(C(=O)CNc4ccc(C)cc4)c3ncn2n1)OC [Compound 9, 1-(2-((2,2-Dimethoxyethyl)thio)-7H-pyrazolo[4,3-e][1,2,4]triazolo[1,5-c]pyrimidin-7-yl)-2-(p-tolylamino)ethan-1-one]
IC50 (MCF-7): 95 ± 4 nM

CC(=O)OCCSc1nc2c3cnn(C(=O)CNc4ccc(C)cc4)c3ncn2n1 [Compound 13, 2-((7-(p-Tolylglycyl)-7H-pyrazolo[4,3-e][1,2,4]triazolo[1,5-c]pyrimidin-2-yl)thio)ethyl acetate]
IC50 (CDK2/cyclin A2): 81 ± 4 nM | IC50 (MCF-7): 59 ± 0.94 nM

Cc1ccc(NCC(=O)n2ncc3c(=N)n(N[C@@H]4O[C@H](CO)[C@@H](O)[C@H](O)[C@H]4O)cnc32)cc1 [Compound 5, 1-(4-Imino-5-((β-D-glucopyranosyl)amino)-4,5-dihydro-1H-pyrazolo[3,4-d]pyrimidin-1-yl)-2-(p-tolylamino)ethan-1-one]
IC50 (CDK2/cyclin A2): 1020 ± 57 nM | IC50 (MCF-7): 88 ± 0.99 nM

Cc1ccc(NCC(=O)n2ncc3c2ncn2nc(SCCO)nc32)cc1 [Compound 12, 1-(2-((2-Hydroxyethyl)thio)-7H-pyrazolo[4,3-e][1,2,4]triazolo[1,5-c]pyrimidin-7-yl)-2-(p-tolylamino)ethan-1-one]
IC50 (MCF-7): 97 ± 1.7 nM

Cc1ccc(NCC(=O)n2ncc3c2ncn2nc(SCC#N)nc32)cc1 [Compound 8, 2-((7-(p-Tolylglycyl)-7H-pyrazolo[4,3-e][1,2,4]triazolo[1,5-c]pyrimidin-2-yl)thio)acetonitrile]
IC50 (CDK2/cyclin A2): 589 ± 33 nM | IC50 (MCF-7): 53 ± 2.7 nM

CNC(=O)c1cc(Oc2ccc(NC(=O)Nc3ccc(Cl)c(C(F)(F)F)c3)cc2)ccn1 [Sorafenib, reference compound]
IC50 (MCF-7): 144 ± 0.47 nM

Cc1ccc(NCC(=O)n2ncc3c2ncn2nc(SCC(O)CO)nc32)cc1 (stereo not shown) [Compound 10, 1-{2-[(2,3-Dihydroxypropyl)thio]-7H-pyrazolo[4,3-e][1,2,4]triazolo[1,5-c]pyrimidin-7-yl}-2-(p-tolylamino)ethan-1-one]
IC50 (CDK2/cyclin A2): 336 ± 19 nM | IC50 (MCF-7): 53 ± 2.1 nM

Cc1ccc(NCC(=O)n2ncc3c(=N)n(N[C@@H]4OC[C@@H](O)[C@H](O)[C@H]4O)cnc32)cc1 [Compound 6, 1-(4-Imino-5-((β-D-xylopyranosyl)amino)-4,5-dihydro-1H-pyrazolo[3,4-d]pyrimidin-1-yl)-2-(p-tolylamino)ethan-1-one]
IC50 (MCF-7): 552 ± 23 nM
